Laboratory results: US10278971B2, “Fluorocyclopentenylcytosine methods of use” (Rexahn Pharmaceuticals, Inc., priority 2015, dated 2019)

Assays:
[1] = tested on: A2780; experiment: Clonogenic assay, radiosensitizing effect; type: cell-based, human
Method: (§1) Exponential growing A2780, SW1573, A549, H460 and SW1573/G-cells were exposed to 1 μM RX-3117 or untreated (control) for 24 h and irradiated with single doses γ-radiation (0-6 Gy) using a ^60Co source (Gammacell 200, Atomic Energy of Canada, Ltd). Subsequently, 500 cells/T25 flasks were plated and allowed to form colonies. After ten days colonies were fixed with 100% ethanol and stained with 10% Giemsa stain solution (Merck Chemicals BV, Amsterdam, the Netherlands) for colonies counting. Plating efficiency (PE) was calculated by dividing the number of colonies formed through the number of cells plated and normalized for cytotoxicity induced by control. To illustrate the effect of RX-3117 on radiation, dose modifying factor (DMF) was calculated as described earlier (Bijnsdorp I V, van den Berg J, Kuipers G K, Wedekind L E, Slotman B J, van Rijn J, Lafleur M V M and Sminia P: Radiosensitizing potential of the selective cyclooygenase-2 (COX-2) inhibitor meloxicam on human glioma cells. J Neurooncol 85: 25-31, 2007).

[2] = tested on: SW1573/G-; experiment: Clonogenic assay, radiosensitizing effect; type: cell-based, human; settings: 1 μM pre-incubation 24 h, irradiation
Method: as §1

[3] = tested on: SW1573; experiment: Clonogenic assay, radiosensitizing effect; type: cell-based, human
Method: as §1

[4] = tested on: A549; experiment: Clonogenic assay, radiosensitizing effect; type: cell-based, human; settings: A549, 1 μM pre-incubation 24 h, irradiation 0-6 Gy
Method: as §1

[5] = tested on: H460; experiment: Clonogenic assay, radiosensitizing effect; type: cell-based, human; settings: H460, 1 μM pre-incubation 24 h, irradiation
Method: as §1

[6] = tested on: H460; experiment: Cell cycle distribution by flow cytometry (PI); type: cell-based, human; settings: H460, 1 μM, 24 hour exposure
Method: The effect of RX-3117 on cell cycle regulation and cell death in human non-small cell lung cancer (NSCLC) cell lines A549 (adenocarcinoma), SW1573 (alveolar carcinoma) and SW1573/G- (SW1573 cell line resistant to gemcitabine) and H460 (large cell carcinoma) was assessed. The A549 and H460 cell lines were obtained from American Type Culture Collection (Manassas, Va., USA). The SW1573 cell line, obtained from Dr. Johan van Rijn (see Keiser et al., Cancer Research, 49:2988-2993 (1989)), also served as the parental cell line for SW1573/G-. A549, SW1573, and SW1573/G- and H460 were kept in exponential growth in T25 flasks (Greiner Bio-One GmbH, Frickenhausen, Germany) and cultured in Dulbecco's minimal essential medium (DMEM) or RPMI 1640 (A549) supplemented with 10% heat-inactivated fetal bovine serum (FBS) 1% streptomycin and penicillin 20 mM HEPES and maintained in 37° C. water saturated atmospheres of 5% CO2. For the cell cycle distribution, 1.5×10^5 cells were seeded in a T25 flask (Greiner Bio-One GmbH) and cultured for 72 hours after which 1 μM of RX-3117 was added and incubated for 24 hours. The cells were then harvested. After the treatment, the medium was collected in a 15 ml tube (Greiner Bio-One GmbH). […] The cells stained with the PI solution were analyzed by FACSCalibur™ (BD Biosciences, Mount View, Calif., USA). Data was analyzed with CellQuest™ Pro software.

[7] = tested on: SW1573/G; settings: as reported in Peters et al. 2013; cited from earlier work

Nc1ccn([C@@H]2C(F)=C(CO)[C@@H](O)[C@H]2O)c(=O)n1 [RX-3117, 4-amino-1-((1S,4R,5S)-2-fluoro-4,5-dihydroxy-3-hydroxymethyl-cyclopent-2-enyl)-1H-pyrimidin-2-one]
dose modifying factor (DMF) ([1]; A2780, 1 μM pre-incubation 24 h, irradiation 0-6 Gy): 1.8
plating efficiency compared to control ([1]; A2780, pre-incubation 1 μM 24 h, 4 Gy): five times lower
dose modifying factor (DMF) [2]: 1.4
colonies outgrowth, fractionated radio therapy ([3]; SW1573, 1 μM prior to 5 times 2 Gy): lowest colonies outgrowth
dose modifying factor (DMF) ([3]; SW1573, 5 μM (FIG. 16 legend) pre-incubation 24 h, irradiation): 1.5
dose modifying factor (DMF) [4]: 1.8
radiosensitizing effect [5]: poor radiosensitizing effect
accumulation of cells in the G1 phase [6]: induced accumulation
increased accumulation of cells in the G1 phase [6]: 20-40%
IC50 [7]: 7.3 µM
